Where “and” joins values, the source holds several entries; their conditions need not be identical. Equal values may be shown once. Read-outs that look alike come from different tables or passages of the source.
How the values were obtained:
[1] = target: T1, R218K mutant luciferase in live CHO cells (Photinus pyralis, UniProt P08659, R218K); experiment: Intact cell assay, transfected CHO cells; format: cell-based
T1 construct: The full firefly (Photinus pyralis) luciferase gene was PCR amplified from pGL3 (Promega); expressed in transfected cells; host or cells: CHO cells
Protocol: (§1) The mutants were cloned into the BamHI-Not I site of pcDNA 3.1 and transfected into CHO cells for live and lysed cell experiments. CHO-cell transfections were performed using Lipofectamine 2000 in 96-well white tissue culture treated plates (Costar) for intact cell assays, or 6-well plates for lysed cell assays. For intact cells, 0.075 μg DNA/well was transfected. For lysed cells, 2.25 μg DNA/well was transfected and one full 6-well plate was transfected for each mutant. Assays were performed in triplicate 24 hours post-transfection.
(§2) Transfected CHO cells were washed with HBSS and overlaid with 60 μL substrate in HBSS.

[2] = target: T2, T251S mutant luciferase in live CHO cells (Photinus pyralis, UniProt P08659, T251S); experiment: Intact cell assay, transfected CHO cells; format: cell-based
T2 construct: The full firefly (Photinus pyralis) luciferase gene was PCR amplified from pGL3 (Promega); expressed in transfected cells; host or cells: CHO cells
Protocol: as §1, §2

S347A mutant luciferase = target: T3, S347A mutant luciferase (Photinus pyralis, UniProt P08659, S347A); format: biochemical; conditions: purified protein
T3 construct: The full firefly (Photinus pyralis) luciferase gene was PCR amplified from pGL3 (Promega); GST (N, cleaved yes); made in house; host or cells: E. coli JM109
Protocol: (§3) The PCR product was cloned into the BamH1 and NotI sites of pGEX6P-1 for bacterial expression. Mutant proteins were created using the Quickchange site-directed mutagenesis kit (Stratagene). Saturating mutagenesis was performed using the used the degenerate codon NNK at sites predicted to impact or alter substrate biding including F247, T251, L286, S347, R337, R218, Q338, Y340, A313, and I351 using the degenerate codon NNK.
(§4) Luminescence assays in 96-well plates were initiated by adding 30 μL 2× substrate in 20 mM Tris pH 7.6, 0.1 mM EDTA, 8 mM MgSO4, 4 mM ATP, and 1 mM TCEP to 30 μL of 20 nM purified luciferase in 20 mM Tris pH 7.6, 0.1 mM EDTA, 1 mM TCEP and 0.4 mg/mL BSA.

R218K mutant luciferase = target: T4, R218K mutant luciferase (Photinus pyralis, UniProt P08659, R218K); format: biochemical
T4 construct: The full firefly (Photinus pyralis) luciferase gene was PCR amplified from pGL3 (Promega); GST (N, cleaved yes); made in house; host or cells: E. coli JM109
Protocol: as §3, §4

T251S mutant luciferase = target: T5, T251S mutant luciferase (Photinus pyralis, UniProt P08659, T251S); experiment: Titration assay with purified protein; format: biochemical
T5 construct: The full firefly (Photinus pyralis) luciferase gene was PCR amplified from pGL3 (Promega); GST (N, cleaved yes); made in house; host or cells: E. coli JM109
Protocol: as §3, §4

L286M mutant luciferase = target: T6, L286M mutant luciferase (Photinus pyralis, UniProt P08659, L286M); experiment: Titration assay with purified protein; format: biochemical
T6 construct: The full firefly (Photinus pyralis) luciferase gene was PCR amplified from pGL3 (Promega); GST (N, cleaved yes); made in house; host or cells: E. coli JM109
Protocol: as §3, §4

F247L L286M luciferase = target: T7, F247L L286M luciferase (Photinus pyralis, UniProt P08659, F247L/L286M); experiment: Bioluminescence emission scan; format: biochemical
T7 construct: The full firefly (Photinus pyralis) luciferase gene was PCR amplified from pGL3 (Promega); GST (N, cleaved yes); made in house; host or cells: E. coli JM109
Protocol: (§5) Purified mutant luciferases were used in bioluminescence emission and burst kinetics scans.
(§6) Luciferase was rapidly injected into a cuvette containing substrate, and the emission from 400-800 nm was recorded in a SPEX FluoroMax-3 fluorimeter with closed excitation slits.

L342A luciferase = target: T8, L342A luciferase (Photinus pyralis, UniProt P08659, L342A); experiment: Bioluminescence emission scan; format: biochemical
T8 construct: The full firefly (Photinus pyralis) luciferase gene was PCR amplified from pGL3 (Promega); GST (N, cleaved yes); made in house; host or cells: E. coli JM109
Protocol: as §5, §6

I351A luciferase = target: T9, I351A luciferase (Photinus pyralis, UniProt P08659, I351A); experiment: Bioluminescence emission scan; format: biochemical
T9 construct: The full firefly (Photinus pyralis) luciferase gene was PCR amplified from pGL3 (Promega); GST (N, cleaved yes); made in house; host or cells: E. coli JM109
Protocol: as §5, §6

T251N luciferase = target: T10, T251N luciferase (Photinus pyralis, UniProt P08659, T251N); experiment: Bioluminescence emission scan; format: biochemical
T10 construct: The full firefly (Photinus pyralis) luciferase gene was PCR amplified from pGL3 (Promega); GST (N, cleaved yes); made in house; host or cells: E. coli JM109
Protocol: as §5, §6

F247S luciferase = target: T11, F247S luciferase (Photinus pyralis, UniProt P08659, F247S); experiment: Bioluminescence emission scan; format: biochemical
T11 construct: The full firefly (Photinus pyralis) luciferase gene was PCR amplified from pGL3 (Promega); GST (N, cleaved yes); made in house; host or cells: E. coli JM109
Protocol: as §5, §6

R218K luciferase = target: T12, R218K luciferase (Photinus pyralis, UniProt P08659, R218K); experiment: Bioluminescence emission scan; format: biochemical
T12 construct: The full firefly (Photinus pyralis) luciferase gene was PCR amplified from pGL3 (Promega); GST (N, cleaved yes); made in house; host or cells: E. coli JM109
Protocol: as §5, §6

L286M luciferase = target: T13, L286M luciferase (Photinus pyralis, UniProt P08659, L286M); experiment: Bioluminescence emission scan; format: biochemical
T13 construct: The full firefly (Photinus pyralis) luciferase gene was PCR amplified from pGL3 (Promega); GST (N, cleaved yes); made in house; host or cells: E. coli JM109
Protocol: as §5, §6

S347T luciferase = target: T14, S347T luciferase (Photinus pyralis, UniProt P08659, S347T); experiment: Bioluminescence emission scan; format: biochemical
T14 construct: The full firefly (Photinus pyralis) luciferase gene was PCR amplified from pGL3 (Promega); GST (N, cleaved yes); made in house; host or cells: E. coli JM109
Protocol: as §5, §6

WT luciferase [3] = target: T15, WT luciferase (Photinus pyralis, UniProt P08659); experiment: Titration assay with purified protein; format: biochemical
T15 construct: The full firefly (Photinus pyralis) luciferase gene was PCR amplified from pGL3 (Promega); GST (N, cleaved yes); made in house; host or cells: E. coli JM109
Protocol: (§7) The PCR product was cloned into the BamH1 and NotI sites of pGEX6P-1 for bacterial expression. Mutant proteins were created using the Quickchange site-directed mutagenesis kit (Stratagene). Saturating mutagenesis was performed using the used the degenerate codon NNK at sites predicted to impact or alter substrate biding including F247, T251, L286, S347, R337, R218, Q338, Y340, A313, and I351 using the degenerate codon NNK. The point mutants S347A, L286A, A348G, E311A, I351A, A313G, R337A, H245A and L342A were made independently.
(§8) Luminescence assays in 96-well plates were initiated by adding 30 μL 2× substrate in 20 mM Tris pH 7.6, 0.1 mM EDTA, 8 mM MgSO4, 4 mM ATP, and 1 mM TCEP to 30 μL of 20 nM purified luciferase in 20 mM Tris pH 7.6, 0.1 mM EDTA, 1 mM TCEP and 0.4 mg/mL BSA. Titration assays were performed 3 minutes post-substrate addition in a Turner Veritas luminometer with final substrate concentrations ranging from 0.122-250 μM or 0.244-500 μM.

[4] = target: T16, S347A/L286M double mutant luciferase (Photinus pyralis, UniProt P08659, L286M/S347A); experiment: Titration assay with purified protein; format: biochemical; conditions: sustained light emission
T16 construct: The full firefly (Photinus pyralis) luciferase gene was PCR amplified from pGL3 (Promega); GST (N, cleaved yes); made in house; host or cells: E. coli JM109
Protocol: as §7, §8

R218K + L342A luciferase = target: T17, R218K + L342A luciferase (Photinus pyralis, UniProt P08659, L342A/R218K); format: biochemical
T17 construct: The full firefly (Photinus pyralis) luciferase gene was PCR amplified from pGL3 (Promega); GST (N, cleaved yes); made in house; host or cells: E. coli JM109
Protocol: (§9) Purified mutant luciferases were used in bioluminescence emission and burst kinetics scans. Each purified protein in 20 mM Tris pH 7.6, 0.1 mM EDTA, 1 mM TCEP and 0.4 mg/mL BSA was added to 2× substrate in 20 mM Tris pH 7.6, 0.1 mM EDTA, 8 mM MgSO4, 4 mM ATP, and 1 mM TCEP in a cuvette.
as §6

WT luciferase [5] = target: T15, WT luciferase; format: biochemical
Protocol: as §9, §6

[6] = 3 minutes post-substrate addition, read-out: Apparent Km

T4 sequence (P08659 whole entry R218K): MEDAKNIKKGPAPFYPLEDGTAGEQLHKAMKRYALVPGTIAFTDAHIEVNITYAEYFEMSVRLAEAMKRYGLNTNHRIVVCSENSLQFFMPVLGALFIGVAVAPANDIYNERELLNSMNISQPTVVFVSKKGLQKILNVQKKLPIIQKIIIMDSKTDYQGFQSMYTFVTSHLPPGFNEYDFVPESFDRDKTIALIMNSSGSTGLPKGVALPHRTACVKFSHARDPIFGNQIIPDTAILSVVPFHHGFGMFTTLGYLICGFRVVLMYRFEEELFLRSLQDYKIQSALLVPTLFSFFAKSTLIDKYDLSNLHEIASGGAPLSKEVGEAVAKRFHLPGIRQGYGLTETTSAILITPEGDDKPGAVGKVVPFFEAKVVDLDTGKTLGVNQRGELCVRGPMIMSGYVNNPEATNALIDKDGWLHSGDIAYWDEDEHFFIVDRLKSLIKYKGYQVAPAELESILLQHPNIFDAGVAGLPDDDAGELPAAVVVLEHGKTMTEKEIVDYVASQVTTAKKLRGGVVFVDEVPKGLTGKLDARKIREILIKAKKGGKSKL
T15 sequence (P08659 whole entry): as the sequence (P08659 whole entry R218K) above, with K218R counted along it
T5 sequence (P08659 whole entry T251S): as the sequence (P08659 whole entry R218K) above, with K218R, T251S counted along it
T12 sequence (P08659 whole entry R218K): as the sequence (P08659 whole entry R218K) above
T6 sequence (P08659 whole entry L286M): as the sequence (P08659 whole entry R218K) above, with K218R, L286M counted along it
T3 sequence (P08659 whole entry S347A): as the sequence (P08659 whole entry R218K) above, with K218R, S347A counted along it
T9 sequence (P08659 whole entry I351A): as the sequence (P08659 whole entry R218K) above, with K218R, I351A counted along it
T16 sequence (P08659 whole entry L286M/S347A): as the sequence (P08659 whole entry R218K) above, with K218R, L286M, S347A counted along it
T2 sequence (P08659 whole entry T251S): as the sequence (P08659 whole entry R218K) above, with K218R, T251S counted along it
T17 sequence (P08659 whole entry R218K/L342A): as the sequence (P08659 whole entry R218K) above, with L342A counted along it
T10 sequence (P08659 whole entry T251N): as the sequence (P08659 whole entry R218K) above, with K218R, T251N counted along it
T14 sequence (P08659 whole entry S347T): as the sequence (P08659 whole entry R218K) above, with K218R, S347T counted along it
T1 sequence (P08659 whole entry R218K): as the sequence (P08659 whole entry R218K) above
T13 sequence (P08659 whole entry L286M): as the sequence (P08659 whole entry R218K) above, with K218R, L286M counted along it
T8 sequence (P08659 whole entry L342A): as the sequence (P08659 whole entry R218K) above, with K218R, L342A counted along it
T7 sequence (P08659 whole entry F247L/L286M): as the sequence (P08659 whole entry R218K) above, with K218R, F247L, L286M counted along it
T11 sequence (P08659 whole entry F247S): as the sequence (P08659 whole entry R218K) above, with K218R, F247S counted along it

Compound: O=C(O)[C@H]1CSC(c2nc3cc4c(cc3s2)NCC4)=N1 [CycLuc1]
- substrate concentrations at which light output was superior to D-luciferin [1]: < 30 µM
- substrate concentrations at which light output was superior to D-luciferin [2]: < 30 µM
- Apparent Vmax (S347A mutant luciferase): 135 ± 0.8 ×10^−5 cps
- Km (S347A mutant luciferase; [6]): 2.68 ± 0.07 µM
- Apparent Vmax (R218K mutant luciferase; R218K luciferase, purified protein): 134 ± 1.9 ×10^−5 cps
- Km (R218K mutant luciferase; R218K luciferase, purified protein, 3 minutes post-substrate addition, read-out: Apparent Km): 1.8 µM and 1.79 µM
- maximal sustained light emission as % of that of D-luciferin with WT luciferase (R218K mutant luciferase; R218K mutant): 12.5%
- improvement in the maximal sustained emission (R218K mutant luciferase; R218K mutant relative to wild-type luciferase): 14 fold
- Apparent Vmax (T251S mutant luciferase): 90 ± 0.9 ×10^−5 cps
- Km (T251S mutant luciferase; [6]): 1.83 ± 0.09 µM
- Apparent Vmax (L286M mutant luciferase): 60 ± 0.7 ×10^−5 cps
- Km (L286M mutant luciferase; [6]): 0.46 ± 0.03 µM
- Wavelength at Max. Emission (F247L L286M luciferase): 603 nm
- Maximum Emission Wavelength of Selected Substrate (L342A luciferase): 597 nm
- Wavelength at Max. Emission (I351A luciferase): 604 nm
- Wavelength at Max. Emission (T251N luciferase): 604 nm
- Wavelength at Max. Emission (F247S luciferase): 607 nm
- Maximum Emission Wavelength of Selected Substrate (R218K luciferase): 609 nm
- Maximum Emission Wavelength of Selected Substrate (R218K luciferase; listed as Cyc1): 605 nm
- Wavelength at Max. Emission (L286M luciferase): 591 nm
- Wavelength at Max. Emission (S347T luciferase): 601 nm
- Apparent Vmax (WT luciferase [3]): 9.7 ± 0.1 ×10^−5 cps
- Km (WT luciferase [3]; [6]): 0.1 ± 0.01 µM
- Vmax higher than wt [4]: 20 fold
- Maximum Emission Wavelength of Selected Substrate (R218K + L342A luciferase): 604 nm
- Wavelength at Max. Emission (WT luciferase [5]; Table 2): 601 nm
- Maximum Emission Wavelength of Selected Substrate (WT luciferase [5]; Table 3): 601 nm

From patent US9587266B2, “Mutant luciferases” (University of Massachusetts, priority 2011, dated 2017)
